In ChEMBL document CHEMBL1201862, “PubChem BioAssay data set” (2004):
Where “and” joins values, the source holds several entries; their conditions need not be identical. Equal values may be shown once.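 All cell lines were grown in 96-well plates and treated with compound for 48 hours. Here, GI50 denotes the concentration required for 50% inhibition of growth.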 Calls of active or inactive are those of the source. No stated cut-off is given here; in the data, active = GI50 up to about 1.1 µM and inactive = higher.

How the values were obtained:
Test in all cases: DTP human tumour cell line panel, 48 h
MCF7 = tested on: MCF7
SK-OV-3 = tested on: SK-OV-3
OVCAR-8 = tested on: OVCAR-8
Malme-3M = tested on: Malme-3M
SF-268 = tested on: SF-268
K562 = tested on: K562
SF-295 = tested on: SF-295
LOX IMVI = tested on: LOX IMVI
CCRF-CEM = tested on: CCRF-CEM
NCI-H522 = tested on: NCI-H522
SR = tested on: SR
HT-29 = tested on: HT-29
U-251 = tested on: U-251
NCI-H23 = tested on: NCI-H23
IGROV-1 = tested on: IGROV-1
MDA-MB-231 = tested on: MDA-MB-231
OVCAR-4 = tested on: OVCAR-4
ACHN = tested on: ACHN
HCC 2998 = tested on: HCC 2998
HOP-92 = tested on: HOP-92

Row | Structure (SMILES) | GI50 (MCF7) | GI50 (SK-OV-3) | GI50 (OVCAR-8) | GI50 (Malme-3M) | GI50 (SF-268) | GI50 (K562) | GI50 (SF-295) | GI50 (LOX IMVI) | GI50 (CCRF-CEM) | GI50 (NCI-H522) | GI50 (SR) | GI50 (HT-29) | GI50 (U-251) | GI50 (NCI-H23) | GI50 (IGROV-1) | GI50 (MDA-MB-231) | GI50 (OVCAR-4) | GI50 (ACHN) | GI50 (HCC 2998) | GI50 (HOP-92)
1 | Cc1cc(-c2cc(C)c(O)c(C(C)(C)C)c2)cc(C(C)(C)C)c1O | 5.02 µM (inactive) and 6.62 µM (inactive) | 16.7 µM (inactive) and 14.2 µM (inactive) | 15.4 µM (inactive) and 13.4 µM (inactive) | 14.6 µM (inactive) and 21.4 µM (inactive) | 13.9 µM (inactive) and 11.7 µM (inactive) | 9.25 µM (inactive) and 7.69 µM (inactive) | 9.82 µM (inactive) and 11.1 µM (inactive) | 10.1 µM (inactive) and 11.5 µM (inactive) | 5.69 µM (inactive) and 5.58 µM (inactive) | 10.5 µM (inactive) and 12.3 µM (inactive) | 4.09 µM (inactive) | 3.24 µM (inactive) and 3.82 µM (inactive) | 13.6 µM (inactive) and 10.6 µM (inactive) | 10.4 µM (inactive) and 12.9 µM (inactive) | 20.8 µM (inactive) and 12 µM (inactive) | 9.55 µM (inactive) and 12.9 µM (inactive) | 12.4 µM (inactive) and 11.6 µM (inactive) | 10.6 µM (inactive) and 15.7 µM (inactive) | 4.54 µM (inactive) and 4.59 µM (inactive) | –
2 | COc1cc(C2C3=C(COC3=O)Oc3cc4c(cc32)OCO4)cc(OC)c1OC (stereo not drawn) | 0.0423 µM (active) | < 0.0144 µM (active) | 0.0335 µM (active) | 0.0828 µM (active) | 0.0417 µM (active) | 0.0108 µM (active) | 0.0109 µM (active) | < 0.0164 µM (active) | 0.0314 µM (active) | 0.001 µM (active) | 0.0424 µM (active) | – | 0.0262 µM (active) | 0.0441 µM (active) | 0.0489 µM (active) | 0.0667 µM (active) | – | < 0.0326 µM (active) | 0.0402 µM (active) | 0.0161 µM (active)
3 | CC(=O)O[C@H]1CC[C@H]2[C@@H]3CCc4cc(O)c(I)cc4[C@H]3CC[C@]12C | 17 µM (inactive) | 15.7 µM (inactive) | 18.3 µM (inactive) | 16.9 µM (inactive) | 13.8 µM (inactive) | 10.6 µM (inactive) | 15.3 µM (inactive) | 15.1 µM (inactive) | > 10 µM (inactive) | 11.8 µM (inactive) | 10.6 µM (inactive) | 17.7 µM (inactive) | 14.7 µM (inactive) | 12.5 µM (inactive) | 16.9 µM (inactive) | 3.64 µM (inactive) | 13.6 µM (inactive) | 14.9 µM (inactive) | 15 µM (inactive) | –
4 | CC1(CCC(=O)OC2CCCCC2)OCCO1 | > 100 µM (inactive) | > 100 µM (inactive) | > 100 µM (inactive) | > 100 µM (inactive) | > 100 µM (inactive) | > 100 µM (inactive) | > 100 µM (inactive) | > 100 µM (inactive) | > 100 µM (inactive) | > 100 µM (inactive) | > 100 µM (inactive) | > 100 µM (inactive) | > 100 µM (inactive) | > 100 µM (inactive) | > 100 µM (inactive) | > 100 µM (inactive) | > 100 µM (inactive) | > 100 µM (inactive) | – | > 100 µM (inactive)
5 | Oc1ccc(C[C@@H]2CN[C@H](Cc3ccc(O)c(Br)c3)CN2)cc1 | > 100 µM (inactive) | > 100 µM (inactive) | > 100 µM (inactive) | – | > 100 µM (inactive) | – | > 100 µM (inactive) | – | > 100 µM (inactive) | > 100 µM (inactive) | > 100 µM (inactive) | > 100 µM (inactive) | > 100 µM (inactive) | > 100 µM (inactive) | > 100 µM (inactive) | > 100 µM (inactive) | > 100 µM (inactive) | > 100 µM (inactive) | > 100 µM (inactive) | > 100 µM (inactive)
6 | [N-]=[N+]=NC1=C(c2ccccn2)C(=O)c2cccc3cccc1c23 | 23.6 µM (inactive) | 36.7 µM (inactive) | – | 49.2 µM (inactive) | 12 µM (inactive) | 23.2 µM (inactive) | 42.5 µM (inactive) | 8.65 µM (inactive) | 7.03 µM (inactive) | – | 27.7 µM (inactive) | 21.1 µM (inactive) | 29.2 µM (inactive) | 19.2 µM (inactive) | 14.8 µM (inactive) | 69.3 µM (inactive) | 31.1 µM (inactive) | 15.7 µM (inactive) | 57.5 µM (inactive) | 29.9 µM (inactive)
7 | Cc1ccc(S(=O)(=O)NC(=O)NC(CCCCN)C(=O)O)cc1 (stereo not drawn) | > 100 µM (inactive) | > 100 µM (inactive) | > 100 µM (inactive) | > 100 µM (inactive) | > 100 µM (inactive) | > 100 µM (inactive) | > 100 µM (inactive) | > 100 µM (inactive) | > 100 µM (inactive) | > 100 µM (inactive) | > 100 µM (inactive) | – | > 100 µM (inactive) | > 100 µM (inactive) | > 100 µM (inactive) | > 100 µM (inactive) | > 100 µM (inactive) | > 100 µM (inactive) | – | 70 µM (inactive)
8 | O=C(OCc1ccccc1)N1c2cc([N+](=O)[O-])ccc2C(=O)N2CCC[C@H]2C1O (stereo partly drawn) | > 100 µM (inactive) | > 100 µM (inactive) | > 100 µM (inactive) | – | > 100 µM (inactive) | > 100 µM (inactive) | > 100 µM (inactive) | > 100 µM (inactive) | > 100 µM (inactive) | > 100 µM (inactive) | > 100 µM (inactive) | > 100 µM (inactive) | > 100 µM (inactive) | > 100 µM (inactive) | > 100 µM (inactive) | > 100 µM (inactive) | > 100 µM (inactive) | > 100 µM (inactive) | > 100 µM (inactive) | > 100 µM (inactive)
9 | Cc1nc2c(sc3nc4c(cc32)CCC4)c(=O)o1 | > 81.3 µM (inactive) | > 100 µM (inactive) | 36.1 µM (inactive) | – | 49.7 µM (inactive) | 57.9 µM (inactive) | > 100 µM (inactive) | 41.4 µM (inactive) | 40.8 µM (inactive) | 31 µM (inactive) | 39.3 µM (inactive) | 36.7 µM (inactive) | > 83.2 µM (inactive) | 67.9 µM (inactive) | 20.6 µM (inactive) | > 92.5 µM (inactive) | 32.4 µM (inactive) | > 66.7 µM (inactive) | 28.6 µM (inactive) | > 50.1 µM (inactive)
10 | CCOC(=O)NNC1(SC)NC(=O)c2c(cc(Cl)oc2=O)O1 (stereo not drawn) | 1.91 µM (inactive) | 8.02 µM (inactive) | 2.07 µM (inactive) | – | 3.49 µM (inactive) | 1.62 µM (inactive) | 12.4 µM (inactive) | 2.06 µM (inactive) | 2.34 µM (inactive) | 2.12 µM (inactive) | 2.36 µM (inactive) | 2.19 µM (inactive) | 10.8 µM (inactive) | 3.61 µM (inactive) | 3.87 µM (inactive) | 8.41 µM (inactive) | 6.17 µM (inactive) | 1.87 µM (inactive) | 4.29 µM (inactive) | 1.96 µM (inactive)
11 | C=C(CCOC)CCC1CCCCC(=C)C1=O (stereo not drawn) | > 100 µM (inactive) | > 100 µM (inactive) | > 100 µM (inactive) | > 100 µM (inactive) | > 100 µM (inactive) | > 100 µM (inactive) | > 100 µM (inactive) | > 100 µM (inactive) | > 100 µM (inactive) | > 100 µM (inactive) | > 100 µM (inactive) | > 100 µM (inactive) | > 100 µM (inactive) | > 100 µM (inactive) | > 100 µM (inactive) | > 100 µM (inactive) | > 100 µM (inactive) | > 100 µM (inactive) | > 100 µM (inactive) | –
12 | CCOC(=O)/C=C(/C=C\COC1CCCCO1)c1ccccc1 (stereo not drawn) | 29 µM (inactive) | 33.6 µM (inactive) | 23.1 µM (inactive) | 84.7 µM (inactive) | 32.1 µM (inactive) | 28.5 µM (inactive) | 24.8 µM (inactive) | 15.4 µM (inactive) | 25.6 µM (inactive) | 21.7 µM (inactive) | 18.8 µM (inactive) | 15.8 µM (inactive) | 26.1 µM (inactive) | 38.4 µM (inactive) | 31.2 µM (inactive) | 42.4 µM (inactive) | 31.5 µM (inactive) | 48 µM (inactive) | > 100 µM (inactive) | –
13 | O1C2C1C1OC1C1OC1C1OC21 (stereo not drawn) | > 100 µM (inactive) | > 100 µM (inactive) | > 100 µM (inactive) | > 100 µM (inactive) | > 100 µM (inactive) | > 100 µM (inactive) | > 100 µM (inactive) | > 100 µM (inactive) | < 0.01 µM (active) | > 100 µM (inactive) | > 100 µM (inactive) | > 100 µM (inactive) | > 100 µM (inactive) | > 100 µM (inactive) | – | > 100 µM (inactive) | > 100 µM (inactive) | > 100 µM (inactive) | – | > 100 µM (inactive)
14 | CC1OC(=O)C(C(C)C)NC(=O)C(C(C)C)OC(=O)C(C(C)C)NC(=O)C(C)OC(=O)C(C(C)C)NC(=O)C(C(C)C)OC(=O)C(C(C)C)NC(=O)C(C)OC(=O)C(C(C)C)NC(=O)C(C(C)C)OC(=O)C(C(C)C)NC1=O (stereo not drawn) | 0.0025 µM (active) | 0.00326 µM (active) | 0.0025 µM (active) | 0.0025 µM (active) | 0.00314 µM (active) | 0.00299 µM (active) | – | 0.00538 µM (active) | 0.0032 µM (active) | – | < 0.0001 µM (active) | 0.0025 µM (active) | 0.0025 µM (active) | 0.0025 µM (active) | 0.00275 µM (active) | < 0.0001 µM (active) | – | < 0.0001 µM (active) | 0.00256 µM (active) | 0.00255 µM (active)
